In patent publication US9096841B2, “Preparation of beta-amino acids” (BASF SE, priority 2009, dated 2015):
Blank lines part the entries; values can stand above or below the compound they belong to.

Experiments:
[1] = system: hydantoinase (obtained from Sigma); test: Hydantoinase catalysed hydrolysis of racemic 6-PDHU and reverse cyclisation, chiral reverse-phase HPLC; assay type: biochemical, Vigna angularis; details: for cyclisation of N-carbamoyl-β-phenylalanine (reverse reaction): with hydantoinase
Method: Unless otherwise stated all experiments were carried out on a 5 mM scale of 6-PDHU (4.75 mg) in 5 mL tris buffer (0.1 M pH 7.5) with 1U of commercially available hydantoinase from Vigna angularis (35 mg, obtained from Sigma, St. Louis, USA) in 15 mL Falcon tubes, incubated in a thermomixer (Falcon) at 750 rpm and a temperature of 50° C.
For chiral rpHPLC the following column, buffer and running conditions were used: • Astec Chirobiotic™ T 25 cm×4.6 mm, 5 μm (Sigma-Aldrich, St. Louis, USA) Ammonium Acetate buffer (pH 5.5):Methanol, 70:30, 25° C., 0.5 mL/min
Initially the hydantoinase (obtained form Sigma, St. Louis, USA) catalysed hydrolysis of (±)-6-PDHU (racemic 6-phenyldihydrouracil) (4a in FIG. 2: R=Ph) was studied as a model system. Reactions were carried out at a substrate concentration of 5 mM in Tris buffer [pH 7.5] and monitored by reverse-phase chiral HPLC as described in Example 7, which allowed simultaneous determination of both the extent of conversion in the reaction and also the enantiomeric excess of unreacted dihydrouracil 4a and the N-carbamoyl derivative 5 (FIG. 4, cf. also Scheme 2). […] All reactions gave an equilibrium concentration of 6-PDHU:(S)-NCBPA=51:49. The enantiomeric excess of (S)-NCBPA exceeded 96% during the whole observation period.

[2] = system: D-hydantoinase from Sigma; test: pH/buffer dependency of hydantoinase conversion of 6-PDHU; assay type: biochemical, Vigna angularis; details: 22 hours
Method: 6-PDHU was incubated in phosphate buffer (0.1 M, potassium dihydrogen phosphate and dipotassium hydrogen phosphate, volumes adjusted to the appropriate pH) or Tris buffer at various pH values for (up to 8h, using 7 g/L D-hydantoinase from Sigma). […] In an additional experiment conversion rates were determined for phosphate or Tris buffers at various pH values over time. 5 mM 6-PHDU was incubated in phosphate buffer (pH 6.0, 7.0, 7.5, 8.0) and Tris buffer (pH 7.5) buffers for 22 hours. The results are shown in FIG. 9 (wherein diamonds, squares, triangles and crosses represent phosphate buffer at pH 6, pH 7, pH 7.5 or pH 8, respectively, and dots represents Tris buffer at pH 7.5) and Table 3 (ee=enantiomeric excess [%]).

[3] = system: hydantoinase isolated in Example 2; test: Specific activity of the hydantoinase isolated in Example 2 towards substrates, HPLC; assay type: biochemical, Vigna angularis; details: Enzyme from Example 2; 5 mM substrate, 50 mM Tris HCl pH 7.5, 30 min, 40° C.
Method: (§1) To determine and compare the specific activity of the Sigma enzyme and the purified hydantoinase (BP) 5 mM of hydantoin, 5-phenylhydantoin or 6-phenyldihydrouracil, respectively, in 50 mM Tris HCl pH 7.5 were incubated with different amounts of enzyme for 30 min at 40° C. The reaction was stopped by adding conc. HCl and then measured by HPLC.

[4] = system: Pseudomonas putida IFO 12996; details: hydrolysis using Pseudomonas putida IFO 12996, JP06261787; cited from earlier work
D-hydantoinase (Sigma) = test: Substrate specificity of Vigna angularis hydantoinase; assay type: biochemical; details: Tris buffer pH 7.5, 0.1 M; D-hydantoinase 7 g/L; substrate 5 mM
Method: Various substrates were synthesized as described in Example 4 and subjected to hydantoinase catalyzed conversion [Tris buffer (pH 7.5, 0.1 M, 1.0 mL), D-hydantoinase, (Sigma, 7 g/L), substrate (5 mM solutions predissolved in buffer unless aromatic substituent (4a, 4b, 4c), in which case substrate is dissolved in 100 microlitres DMSO and added to 900 microlitres of buffer)]. The reaction is shown in FIG. 10, the results are shown in Table 4, wherein the E-value is defined as follows: E value=(ln(1−[product](1+ee)))/(ln(1−[product]*(1−ee)))

[5] = system: hydantoinase obtained from Sigma; test: Specific activity of commercially available hydantoinase (Sigma) towards substrates, HPLC; assay type: biochemical, Vigna angularis; details: Enzyme from Sigma; 5 mM substrate, 50 mM Tris HCl pH 7.5, 30 min, 40° C.
Method: as §1

[6] = pH dependency of chemical hydrolysis of 6-PDHU in Tris buffer without enzyme; assay type: physicochemical; details: 24 hours, no enzyme
Method: 6-PDHU was incubated at 50° C. for 24 hours in Tris buffer at different pH values. Appreciable background hydrolysis of 6-PDHU occurred with a strong pH and buffer dependency. In Tris buffer at pH 7, a background hydrolysis of 0.5% was observed. At pH 9, the background hydrolysis amounted to ca. 20% (FIG. 7).

Compound: NC(=O)NC(CC(=O)O)c1ccccc1 (racemic) [N-carbamoyl-β-phenylalanine, (±)—N-carbamoyl-β-phenylalanine]
- cyclisation of N-carbamoyl-β-phenylalanine (reverse reaction) [1]: highly (S)-selective

Compound: O=C1NC(=O)C(c2ccccc2)N1 (stereo not shown) [5-Phenylhydantoin, 5-phenylhydantoin]
- specific activity [3]: 557
- specific activity [5]: 261

Compound: NC(=O)N[C@H](CC(=O)O)c1ccccc1 [(R)-NCBPA, (R)—N-carbamoyl-β-phenylalanine]
- cyclisation of N-carbamoyl-β-phenylalanine (reverse reaction) [1]: no appreciable cyclisation

Compound: NC(=O)N[C@@H](CC(=O)O)c1ccccc1 [(S)-NCBPA, (S)-N-carbamoyl-β-pheynylalanine]
- enantiomeric excess of (S)-NCBPA ([1]; during the whole observation period): exceeded 96%

Compound: O=C1CNC(=O)N1 [Hydantoin, hydantoin]
- specific activity [3]: 425
- specific activity [5]: 217

Compound: CC1CNC(=O)NC1=O (stereo not shown) [Substrate 8, 5-methyldihydrouracil]
- Relative rate of enzymatic hydrolysis (D-hydantoinase (Sigma)): 23

More lines, main results first:

- E value ([1]; selective for the (S)-enantiomer, 5 mM substrate, Tris buffer pH 7.5): > 100
- ee (enantiomeric excess) ([2]; Phosphate buffer pH 6.00, 5 mM): >99.90%
- ee (enantiomeric excess) ([2]; Phosphate buffer pH 7.00, 5 mM): >99.90%
- ee (enantiomeric excess) ([2]; Phosphate buffer pH 7.50, 5 mM): 96.62%
- ee (enantiomeric excess) ([2]; Phosphate buffer pH 8.00, 5 mM): 92.73%
- ee (enantiomeric excess) ([2]; Tris buffer pH 7.50, 5 mM): >99.90%
- specific activity [3]: 72
- E value (D-hydantoinase (Sigma)): >200
- Relative rate of enzymatic hydrolysis (D-hydantoinase (Sigma)): 7
- specific activity [5]: 6
- background hydrolysis ([6]; Tris buffer pH 7, 50° C.): 0.5%
- background hydrolysis ([6]; Tris buffer pH 9, 50° C.): ca. 20%
Compound: O=C1CC(c2ccccc2)NC(=O)N1 (racemic) [Substrate 4a, (±)-6-phenyldihydrouracil]
- enantiomeric excess [4]: up to 51%

- E value (D-hydantoinase (Sigma)): >100
- Relative rate of enzymatic hydrolysis (D-hydantoinase (Sigma)): 15
Compound: O=C1CC(c2ccc(F)cc2)NC(=O)N1 (stereo not shown) [Substrate 4b, 6-(4-fluoro-phenyl)-dihydrouracil]

- E value (D-hydantoinase (Sigma)): >100
- Relative rate of enzymatic hydrolysis (D-hydantoinase (Sigma)): 41
Compound: O=C1CC(c2ccc(Cl)cc2)NC(=O)N1 (stereo not shown) [Substrate 4c, 6-(4-chloro-phenyl)-dihydrouracil]

- Relative rate of enzymatic hydrolysis (D-hydantoinase (Sigma)): 100
Compound: O=C1CCNC(=O)N1 [Substrate 4e, dihydrouracil]

- E value (D-hydantoinase (Sigma)): 5
- Relative rate of enzymatic hydrolysis (D-hydantoinase (Sigma)): 52
Compound: CC1CC(=O)NC(=O)N1 (stereo not shown) [Substrate 4h, 6-methyldihydrouracil]
